{"source": "patent US20230346827A1", "about": "(priority 2020, published 2023)", "key": {"[1]": {"biological_target": "T1, SARS-CoV-2 spike protein - ACE2 interaction (Severe acute respiratory syndrome coronavirus 2, UniProt P0DTC2)", "T1 construct": "purchased RayBio CoV-SACE2", "test": "RayBio COVID-19 Spike-ACE2 binding assay kit (ELISA)", "set-up": "species or system SARS-CoV-2 / human", "details": "LMW-DS 3.0 to 600 µg/ml", "method": "The RayBio® COVID-19 Spike-ACE2 binding assay kit (cat. number CoV-SACE2) was used as per the manufacturer’s instructions (ver 1.6) to assess the ability of LMW-DS to disrupt the interaction between SARS-CoV-2 spike protein and ACE2.\nLMW-DS (ILB®, Tikomed AB, Viken, Sweden, WO 2016/076780) in saline was added in concentrations ranging from […] to 600 µg/ml."}, "[2]": {"tested_on": "human purified monocytes", "test": "Stimulated IL-6 release from human purified monocytes (ELISA)", "assay_type": "cell-based", "details": "24 h, LMW-DS 60-600 µg/ml, heparin 2.0-20 µg/ml, dexamethasone 3.0 µM", "method": "Peripheral blood mononuclear cells (PBMC) were isolated from healthy donors through Ficoll-Paque PLUS (GE Healthcare; 11778538) density centrifugation. Monocytes were purified using the EasySep™ human monocyte enrichment kit (StemCell) that purifies monocytes ‘untouched’ to maintain their phenotype.\nMonocytes were cultured in the absence (unstimulated PBS vehicle controls) or presence of stimulation (LPS or peptidoglycan) in the absence (vehicle) or presence of LMW-DS (Tikomed AB, Viken, Sweden, WO 2016/076780; three concentrations; top concentration 600 µg/ml, 200 µg/ml and 60 µg/ml), heparin (2.0, 6.0 or 20 µg/ml; equivalent to 0.406, 1.218 and 4.06 units/ml; Sigma Aldrich) or dexamethasone (3.0 µM; Sigma Aldrich) for 24 hours at 37° C., 5% CO2. Following centrifugation, cell culture supernatants were removed and stored at -20° C. awaiting analysis for IL-6 by ELISA. Levels of IL-6 were quantified in the supernatant by ELISA (R&D systems) according to manufacturer’s instructions."}, "[3]": {"tested_on": "ALS patients", "test": "ALSFRS-R / clinical observation in ALS patients (Example 15)", "assay_type": "in vivo, human", "details": "five-week treatment period", "method": "Dextran sulfate (Tikomed AB, Viken, Sweden, WO 2016/076780) was administered at 1 mg/kg by […] subcutaneous injection once a week for five weeks to 13 human patients suffering from ALS.\nALSFRS-R was assessed pre-treatment and weekly thereafter for the 5 treatment weeks and for the visits at the follow-up period."}}, "data": [{"substance": "sodium salt of dextran sulfate [LMW-DS]", "values": [{"measurement": "SARS-CoV-2 spike protein - ACE2 interaction", "setting": "[1]", "result": "concentration dependent disruption"}, {"measurement": "LPS-stimulated IL-6 release", "setting": "[2]; LPS 0.01 ng/ml", "result": "concentration dependent statistically significant inhibition"}, {"measurement": "peptidoglycan-stimulated IL-6 release", "setting": "[2]; peptidoglycan 30 ng/ml", "result": "concentration dependent statistically significant increase"}, {"measurement": "severe bulbar paresis (two patients)", "setting": "[3]", "result": "almost complete resolution"}]}]}
